According to ChEMBL document CHEMBL5465560, “Selectivity Literature for EUbOPEN Chemogenomic Library” (2024):
Numbering of substitutions follows the chain as printed.

How the values were obtained:
[1] = biological target: Receptor-type tyrosine-protein kinase FLT3 (Homo sapiens) (UniProt P36888); assay: (§1) Selectivity interaction (KinomeScan (DiscoverX)) EUB0000695a FLT3; details: at 100 nM
[2] = tested on: T1, Receptor-type tyrosine-protein kinase FLT3 (Homo sapiens), P36888 [D835V]; assay: as §1; details: at 100 nM
T1 sequence (whole entry): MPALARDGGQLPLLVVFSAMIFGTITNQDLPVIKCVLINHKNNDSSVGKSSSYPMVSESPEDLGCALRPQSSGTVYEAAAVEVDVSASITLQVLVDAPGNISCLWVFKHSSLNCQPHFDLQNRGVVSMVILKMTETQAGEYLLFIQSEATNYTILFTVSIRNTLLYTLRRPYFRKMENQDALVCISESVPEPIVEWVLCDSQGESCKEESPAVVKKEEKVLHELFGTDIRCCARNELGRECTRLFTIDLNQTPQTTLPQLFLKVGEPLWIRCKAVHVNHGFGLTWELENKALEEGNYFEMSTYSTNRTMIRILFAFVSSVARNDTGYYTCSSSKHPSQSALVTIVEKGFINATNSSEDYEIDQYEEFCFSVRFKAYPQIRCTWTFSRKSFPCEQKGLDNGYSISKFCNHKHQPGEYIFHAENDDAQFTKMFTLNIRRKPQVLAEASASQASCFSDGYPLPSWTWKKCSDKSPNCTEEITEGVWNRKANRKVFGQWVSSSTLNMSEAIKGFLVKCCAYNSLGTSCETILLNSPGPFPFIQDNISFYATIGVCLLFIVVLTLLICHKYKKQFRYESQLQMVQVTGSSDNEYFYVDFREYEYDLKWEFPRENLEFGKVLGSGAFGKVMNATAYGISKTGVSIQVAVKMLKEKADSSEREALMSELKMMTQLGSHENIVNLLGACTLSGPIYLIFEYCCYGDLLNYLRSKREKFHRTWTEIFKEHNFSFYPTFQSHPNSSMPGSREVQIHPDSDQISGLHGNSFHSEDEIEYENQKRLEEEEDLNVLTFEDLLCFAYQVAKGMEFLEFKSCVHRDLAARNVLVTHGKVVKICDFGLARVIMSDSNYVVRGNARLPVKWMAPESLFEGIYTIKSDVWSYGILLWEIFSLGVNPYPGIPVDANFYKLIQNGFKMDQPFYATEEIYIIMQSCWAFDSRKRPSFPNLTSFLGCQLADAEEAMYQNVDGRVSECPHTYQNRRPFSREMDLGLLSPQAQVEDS

[3] = tested on: T2, Receptor-type tyrosine-protein kinase FLT3 (Homo sapiens), P36888 [R834Q]; assay: as §1; details: at 100 nM
T2 sequence (whole entry): T1 sequence (whole entry) with R834Q, V835D

[4] = tested on: Receptor-type tyrosine-protein kinase FLT3 (Homo sapiens), P36888 [UNDEFINED MUTATION]; assay: as §1; details: at 100 nM
[5] = biological target: T3, Mitogen-activated protein kinase 15 (Homo sapiens) (UniProt Q8TD08); assay: Selectivity interaction (KinomeScan (DiscoverX)) EUB0000655a MAPK15; details: at 10 µM
T3 sequence (whole entry): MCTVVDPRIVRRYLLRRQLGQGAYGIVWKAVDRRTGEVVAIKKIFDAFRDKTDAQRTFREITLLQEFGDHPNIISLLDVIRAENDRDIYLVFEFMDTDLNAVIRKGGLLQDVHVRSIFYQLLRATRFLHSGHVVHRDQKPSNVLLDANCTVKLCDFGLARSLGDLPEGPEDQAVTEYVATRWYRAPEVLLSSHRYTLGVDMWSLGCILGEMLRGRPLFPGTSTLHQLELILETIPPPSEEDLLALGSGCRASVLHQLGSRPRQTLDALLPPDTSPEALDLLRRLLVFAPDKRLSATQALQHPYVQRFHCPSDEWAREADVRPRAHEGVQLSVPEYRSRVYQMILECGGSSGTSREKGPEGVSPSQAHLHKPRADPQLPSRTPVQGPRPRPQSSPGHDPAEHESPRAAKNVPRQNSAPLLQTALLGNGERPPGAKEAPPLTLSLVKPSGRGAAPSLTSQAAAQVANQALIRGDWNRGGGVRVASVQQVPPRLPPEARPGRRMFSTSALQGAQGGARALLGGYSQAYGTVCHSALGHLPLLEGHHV

| Compound | % of control [1] [%] | % of control [2] [%] | % of control [3] [%] | % of control [4] [%] | % of control [5] [%] |
| --- | --- | --- | --- | --- | --- |
| Cc1cc(F)c(C(=O)Nc2cccc(-c3nncn3C(C)C)n2)cc1-n1cnc(C2CC2)c1 | 100 | 100 | 100 | 100 |  |
| CN(C)CCOc1ccc(-c2nc(-c3ccncc3)c(-c3ccc4c(c3)CC/C4=N\O)[nH]2)cc1 |  |  |  |  | 100 |
